Laboratory results taken from PMC6368403, “Identification of a bilirubin receptor that may mediate a component of cholestatic itch” (eLife, 2019).

Experiments:
[1] = target: T1, MRGPRC11 (Mus musculus, UniProt Q8CIP3); assay: Ca2+ imaging and concentration-Ca2+ response in HEK293 cells expressing MRGPRC11; format: cell-based; conditions: three replicates, Fig 2-N
T1 construct: expressed in transfected cells
T1 sequence (Q8CIP3 1-322): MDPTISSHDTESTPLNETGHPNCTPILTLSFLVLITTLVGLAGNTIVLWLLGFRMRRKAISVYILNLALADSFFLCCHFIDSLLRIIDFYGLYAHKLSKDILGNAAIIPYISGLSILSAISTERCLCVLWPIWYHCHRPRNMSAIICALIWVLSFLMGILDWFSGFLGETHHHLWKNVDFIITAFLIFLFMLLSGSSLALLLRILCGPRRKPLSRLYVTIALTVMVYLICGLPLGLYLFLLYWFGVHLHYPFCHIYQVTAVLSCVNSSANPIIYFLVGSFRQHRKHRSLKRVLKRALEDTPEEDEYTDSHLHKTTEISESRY
Experimental: All cultured cells were maintained in DMEM supplemented with 10% FBS and 1% Penicillin/Streptomycin at 37°C, 5% CO2. All data included were generated from cells tested for mycoplasma and found to be negative. Cells were imaged in calcium imaging buffer (CIB; 10 mM HEPES, 1.2 mM NaHCO3, 130 mM NaCl, 3 mM KCl, 2.5 mM CaCl2, 0.6 mM MgCl2, 20 mM glucose, and 20 mM sucrose at pH 7.4 and 290–300 mOsm). To monitor changes in intracellular [Ca^2+] ([Ca^2+]i), cells were loaded with either Fura 2-AM (HEK293 cells) or Fluo 4-AM (DRG neurons and mast cells) for 30 min in the dark at 37°C in CIB just prior to imaging. With Fura 2-AM, emission at 510 nm was monitored from excitation at both 340 nm and 380 nm. With Fluo 4-AM, emission at 520 nm was monitored from excitation at 488 nm. Cells were identified as responding if the intracellular [Ca^2+] rose by either 50% compared to baseline or 50% compared to the [Ca^2+]i change assayed during addition of 50 mM KCl (neurons only). Damaged, detached, high-baseline, and motion-activated cells were excluded from analysis.
In initial screens, HEK293 cells stably expressing the murine G-protein alpha-subunit Gα15, a unique Gα protein that non-selectively couples a large variety of GPCRs to phospholipase C ^30, were plated on poly-D-lysine-coated coverslips and transiently transfected with constructs encoding the MRGRPR of interest. 12–24 hr later, cells were loaded with the Fura 2-AM. Unless otherwise specified, compounds were perfused into the imaging chamber for approximately thirty seconds after a baseline period was established. Response was then monitored at 5 s intervals for an additional 60 s.
HEK293 cells stably expressing either MRGPRA1, MRGPRX4, and MRGRPC11 were seeded in poly-D-lysine-coated 96-well plates at 10,000 cells/well. Cells were loaded with Fura 2–AM, washed twice, and maintained in CIB. Haem metabolites were freshly dissolved in DMSO in dim light and then diluted into a buffer comprised of 20 mM Tris and 150 mM NaCl at pH 8.8. Potential changes in pH were evaluated prior to each experiment. EC50 values were determined from dose-responses performed in triplicate, repeated 2–4 times. To determine potential antagonism by QWF against bilirubin, cells were treated with varying doses of QWF for 1 min in CIB prior to application of agonist.
HEK293 stable cell lines expressing GFP-tagged MRGPRA3, MRGPRC11, MRGPRD, MRGPRX1, and MRGPRX2 were generated in previously described reports ([Liu et al., 2009]; [Liu et al., 2012]; [McNeil et al., 2015]). Briefly, plasmids containing the receptor of interest were transfected into HEK cells using Lipofectamine 3000. After 3 days, cells were then selected using 0.5 mg/mL G418. After 3 weeks, monoclonal colonies were established and each the highest expressing clones were identified. For this study, Mrgpra1 and MRGPRX4 were inserted into pEGFP-N1 and transfected into HEK293 cells. MRGPR-positive cells were selected using 0.5 mg/mL G418 for three weeks, after which GFP-positive cells were sorted by FACS and monoclonally expanded. Two lines expressing similar levels of MRGPRA1 and MRGPRX4, as measured by GFP fluorescence, were selected for study.

[2] = target: T1, MRGPRC11; assay: Microscale thermophoresis binding to MRGPRC11; conditions: for microscale thermophoresis response (binding isotherm), mean: mean of n=3, Fig 2-O
Experimental: Binding isotherms for MRGPRA1, MRGPRX4, and MRGRPC11 towards various ligands were determined by microscale thermophoresis with the NanoTemper monolith NT.115 instrument ([Duhr and Braun, 2006]). Ligands were pre-incubated with 10 µM of the GFP-tagged receptor of interest for 5 min at room temperature in binding buffer (20 mM Tris and 150 mM NaCl at pH 8.8). Receptors were crudely purified as a membrane fraction from cells stably expressing the receptor ([Vasavda et al., 2017]). Haem metabolites were freshly dissolved in 0.1 M NaOH in dim light and then diluted into assay buffer. Lyophilized BAM8-22 was dissolved in binding buffer. The pH of each ligand was evaluated prior to incubation with a receptor. Samples were loaded into NT.115 Hydrophobic-Treated Capillaries from NanoTemper. Microscale thermophoretic experiments were executed using 20% LED power and 15% MST power. KDs were calculated using the law of mass action with data from three independent experiments. Binding between bilirubin and receptors was evaluated purely thermophoretically, whereas binding between BAM8-22 and MRGPRC11 was evaluated by T-Jump. Samples with dramatic deviations in initial fluorescence were excluded.

Ca2+ response (concentration-Ca2+ response curve), replicate values ([1]; [Ligand] 3.90625e-6 M): 0 | Ca2+ response (concentration-Ca2+ response curve), replicate values ([1]; [Ligand] 7.8125e-6 M): 0 | Ca2+ response (concentration-Ca2+ response curve), replicate values ([1]; [Ligand] 1.5625e-5 M): 0 | Ca2+ response (concentration-Ca2+ response curve), replicate values ([1]; [Ligand] 3.125e-5 M): 0 | Ca2+ response (concentration-Ca2+ response curve), replicate values ([1]; [Ligand] 6.25e-5 M): 0 | Ca2+ response (concentration-Ca2+ response curve), replicate values ([1]; [Ligand] 0.000125 M): 0 | Ca2+ response (concentration-Ca2+ response curve), replicate values ([1]; [Ligand] 0.00025 M): 0 | Ca2+ response (concentration-Ca2+ response curve), replicate values ([1]; [Ligand] 0.0005 M): 0 | microscale thermophoresis response (binding isotherm), mean ([2]; [Ligand] 3.05e-8 M): 2.385e-5 | microscale thermophoresis response (binding isotherm), mean ([2]; [Ligand] 6.1e-8 M): 4.712e-5 | microscale thermophoresis response (binding isotherm), mean ([2]; [Ligand] 1.221e-7 M): 4.182e-5 | microscale thermophoresis response (binding isotherm), mean ([2]; [Ligand] 2.441e-7 M): 4.08e-5 | microscale thermophoresis response (binding isotherm), mean ([2]; [Ligand] 4.883e-7 M): 5.536e-5 | microscale thermophoresis response (binding isotherm), mean ([2]; [Ligand] 9.766e-7 M): 1.928e-5 | microscale thermophoresis response (binding isotherm), mean ([2]; [Ligand] 1.9531e-6 M): -5.329e-6 | microscale thermophoresis response (binding isotherm), mean ([2]; [Ligand] 3.9063e-6 M): -1.57e-5 | microscale thermophoresis response (binding isotherm), mean ([2]; [Ligand] 7.8125e-6 M): -3.808e-5 | microscale thermophoresis response (binding isotherm), mean ([2]; [Ligand] 1.5625e-5 M): -4.952e-5 | microscale thermophoresis response (binding isotherm), mean ([2]; [Ligand] 3.125e-5 M): -4.222e-5 | microscale thermophoresis response (binding isotherm), mean ([2]; [Ligand] 6.25e-5 M): 5.5228e-6 | microscale thermophoresis response (binding isotherm), mean ([2]; [Ligand] 0.000125 M): 4.793e-5 | microscale thermophoresis response (binding isotherm), mean ([2]; [Ligand] 0.00025 M): 9.26e-5 | microscale thermophoresis response (binding isotherm), mean ([2]; [Ligand] 0.0005 M): 0.0002843 | Affinity for MRGPRC11 ([2]; microscale thermophoresis): little to no affinity
Compound: C=CC1=C(C)/C(=C/c2[nH]c(Cc3[nH]c(/C=C4\NC(=O)C(C)=C4C=C)c(C)c3CCC(=O)O)c(CCC(=O)O)c2C)NC1=O [bilirubin, bilirubin IXα]
